Measurements: EP0139358B1, “N6-substituted diarylalkyl adenosines, processes for their production and pharmaceutical compositions comprising the same” (priority 1983, dated 1985)
Read-outs that look alike come from different tables or passages of the source.

Key:
Swiss-Webster male mice [1] = experiment: Mouse Activity and Screen Test (MAST): inhibition of spontaneous locomotion (LI); assay type: in vivo; conditions: Mus musculus, ip; read-out: MAST LI LAD
Procedure: (§1) Treatments are administered intraperitoneally one hour prior to testing. […] Compounds are dissolved or suspended in 0.2% Methocel. Control animals are injected with Methocel.
Immediately following the screen test, the final phase of testing is initiated by placing each group of three mice in one actophotometer (Life Sciences, 22, 1067-1076, 1978). The actophotometer consists of a cylindrical chamber whose center is occupied by another cylinder which contains the illumination for six photocells located on the perimeter of the chamber. Six light-beam interruptions equal one count. Locomotor activity is recorded by computer at ten minute intervals for 60 minutes. […]

conscious rat = experiment: Antihypertensive evaluation (AHP3): aortic blood pressure and heart rate; assay type: in vivo; conditions: lowest dose tested at which a >10% reduction in blood pressure for four consecutive hours is achieved; conscious rat; read-out: AHP3 BP LAD
Description: […] EVALUATION (AHP3)
This test procedure is described in the following paragraphs.
A Method for the Direct Monitoring of Aortic Blood Pressure and Heart Rate from Conscious Rats
The continuous monitoring of pulsatile blood pressure (BP) from unrestrained conscious rats surgically equipped with polyethylene cannulas was accomplished by means of a computer assisted data capture scheme (CADCS). The absic elements of the methodology are the cannulation procedure and the CADCS.
Cannulation Procedure: Rats were anesthetized with Telazol (1:1 tiletamine HCI and zolazepam HCI); 20-40 mg/kg IM and the descending aorta exposed via a midline incision. Cannulas fabricated from polyethylene tubing were inserted into the aorta via an undersized puncture hole below the renal arteries. The puncture hole was made by a 23 G disposable needle with a section of the aorta clamped off above and below the puncture site. The cannulas, consisting of a PE100 (0.86 mm ID) body and a PE50 (0.58 mm ID) tip, were attached to a trocar, inserted through the psoas muscle, and passed subcutaneously along the midline of the back and externalized between the ears. The cannulas were anchored to the psoas muscle and between the scalulae (3-0 green braided suture). The midline incision was closed in two steps (muscle first, skin second) using continuous over-and over sutures (4-0 chronic). Each rat was then given penicillin 30,000 units subcutaneously (Penicillin G Procaine Sterile Suspension).
The rats were fitted with a harness-spring-swivel assembly designed to protect the cannula and to provide the rat relative freedom of movement. The harnesses were fabricated from nylon hook and loop tape cemented to a metal plate to which spring wires (18-8 stainless steel), were attached to brass swivels. Each polyethylene cannula was channeled through a spring and connected through a swivel to a pressure transducer (Model P23Gb; Statham Instruments; Hato Rey, Puerto Rico) and an infusion pump (Sage model 234-7; Orion Research, Cambridge, Ma) by means of PE100 tubing. While on test, each rat received a continuous slow infusion of heparinized saline solution (approximately 400 I or 40 units of heparin per 24 hour period) to prevent clot formation. Additional "flushes" of the cannula with heparinized saline were carried out when the aortic pulse pressure (systolic minus diastolic) was less than 25 mm Hg.
CADCS: The pulsatile blood pressure and heart rate of each of 32 rats was monitored every minute by means of two in-laboratory microcomputers communicating directly with a data concentrator computer. The data were first stored on the data concentrator disk and then transferred to a magnetic tape for analysis and report generation by the main research computer. The overall scheme involved modulating the primary signal from the pressure transducer, generating the primary data set of the one-minute values for systolic, diastolic, and mean blood pressures and heart rate by the in-lab microcomputer and the storage, analysis, and report generation by the main research computer.
The transducers were connected to analog signal conditioning modules. The modules providing a regulated excitation voltage for the transducers, amplification as required to interface the microprocessors and an active low pass filter to compensate for the pressure wave form distortion produced by the flexible, fluid filled, narrow cannula.
The microcomputers (one for each of two groups of 16 rats) were connected to the input components through the module interface units, an analog-to-digital converter for the pressure wave form signal and the digital inputs for the dose and event marker switches. The microcomputer controlled the sequential acquisition of data from the modular interface units through an internal synchronous time-of-day clock/ time base generator. […]

male Swiss-Webster mice = experiment: Analgesic evaluation: antiwrithing (AW) test, acetic acid; assay type: in vivo; conditions: Mus musculus, sc; subcutaneously, 20 minutes before acetic acid; dose to suppress writhing by 50%; read-out: AW ED50
Procedure: The antiwrithing (AW) test provides preliminary assessment of compounds with potential analgesic activity. The test is performed in male Swiss-Webster mice. Compounds are administered subcutaneously in aqueous 0.2% methylcellulose or other appropriate vehicles in volumes of 10 ml/kg. Dosages represent activity moiety.
Acetic acid (0.6%, 10 ml/kg) is injected intraperitroneally 20 minutes after administration of the adenosine agonist. Writhing movements are counted for five minutes starting seven minutes after the acetic acid injection. Writhing is defined as abdominal constriction and stretching of the body and hind legs with concave arching of the back. […] EDso values are calculated by nonlinear regression analysis.

Swiss-Webster male mice [2] = experiment: Mouse Activity and Screen Test (MAST): screen test (ST); assay type: in vivo; conditions: lowest dose at which an A rating (60-100%) is achieved, screen test; intraperitoneally
Procedure: as §1
The compounds are identified in the Examples.

rat heart = experiment: Coronary blood flow (PCS2A): isolated perfused heart; conditions: isolated perfused rat heart
Procedure: CORONARY BLOOD FLOW (PCS2A)
Male rats (400-600 gms) are pretreated with Na haparin 2000 units and anesthetized with Na pentobarbital (50 mg/kg) administered intraperitoneally. Once anesthetized, the rat heart is rapidly excised, the ascending aorta fitted to the aortic perfusion cannula, and […] with a ligature. The coronary arteries are perfused initially at a rate of about 15 ml/min for two to three minutes, afterwhich they are perfused at constant pressure of 70 mm Hg and temperature of 37°C. The electrocardiogram (ECG) is recorded using two platinum electrodes positioned at the base and apex of the left ventricle. A second heart is excised, cannulated, and perfused by the same method outlined above. Both hearts are tested in parallel. The standard physiological salt solution (PSS) is a modified Krebs-Hanseleit bicarbonate buffer of the following composition in mM concentration: NaCI, 127; NaHC03, 25; dextrose, 5.5; Na Pyruvate, 2.0: KCI, 4.7; MgS04, 1.1; KH 2P04, 1.2; CaCl2·2H2O, 2.5; CaNa2 EDTA, 0.05.
A 30-minute stabilization period is observed before starting the test protocol.
The microprocessor control system is a servo mechanism which permits coronary perfusion pressure (CPP) and drug concentration to be maintained constant independent of changes in coronary flow. The level at which CPP and drug concentration are maintained can be changed by commands communicated through the microprocessor keyboard. Dose-response curves are carried out by perfusing concentrated drug solution (DC) at rates proportional to total coronary flow (CFT). Drug concentrations are increased by proportionate increases in the rate of DC infusion over CFT via the microprocessor keyboard. The proportional flow rates for DC:CFT is about .0002:1 at the low end and .02: at the high end of the dose-response curve. Dose-response curves encompassing at least two log doses are carried out by preparing two DCs with a concentration difference of 1:100. Following the first dose range of two log doses, the DC are switched, proportional pumping rate adjusted, and the dose-response curve continued for another two log doses. The standard dose-response curve is carried out in one-half log dose increments starting at a subthreshold dose and ending at a dose which produces near maximal response in activity. Standard reference compounds are tested over the range of 10-^9 to 10-^6M.
Measurements are for heart rate (HR) and coronary flow (CF). Units are: HR, beats/minute (bpm) and CF, milliliters/minute (ml/min). HR is calculated from the ECG strip chart recording and CF is calculated by recording analog outputs from pumps 1 and 2. Outputs from pump #1 = CFT and the output from pump #2 = CF for heart B (CFg). CF for heart A (CFA) is calculated (CFT - CFB = CFA).
Using the above technique, the effects of the compound of Examples 1 and 2 are as follows: […]

[3] = test system: Long-Evans rats or squirrel-monkeys; experiment: Antipsychotic lever-push shock avoidance protocol (SIDR); assay type: in vivo; conditions: Rattus norvegicus; shock avoidance lever pushing; read-out: SIDR ED50
Procedure: Representative compounds of the invention (identified in the Examples) were also tested for antipsychotic activity according to the following protocol (SIDR). […] Mature male Long-Evans rats or squirrel-monkeys are conditioned to push a lever in order to avoid a painful electric footshock. If the animal fails to push the lever, he receives a shock every ten seconds until the lever is pushed. Shocks can be terminated by pushing the lever. Thereafter, as long as the lever is pushed at least once every 20 seconds, there will be no shock. Each animal acts as its own control; one weekly session is used to establish baseline behavior and another session later in the week is used as a drug session. Once patterns of avoidance are established, the effects of standard and unknown compounds are studied. All events are electronically programmed and the response to these events counted or used as feedback to the program.

[4] = coronary flow, read-out: PCS2A CF ED50
[5] = heart rate, read-out: PCS2A HR ED50

Row | SMILES | minimal effective dose (Swiss-Webster male mice [1]) | minimal effective dose (conscious rat) | ED50 (male Swiss-Webster mice) | MAST ST LAD (Swiss-Webster male mice [2]) | EC50 (rat heart; [4]) | EC50 (rat heart; [5]) | ED50 [3]
1 | CC(CNc1ncnc2c1ncn2[C@@H]1O[C@H](CO)[C@@H](O)[C@H]1O)(c1ccccc1)c1ccccc1 [Example 8, N^6-(2,2-Diphenylpropyl)adenosine] | 10 mg/kg | 10 mg/kg | 10.6 mg/kg | >100 mg/kg | < 0.1 µM | 3 µM | 5.6 mg/kg
2 | OC[C@H]1O[C@@H](n2cnc3c(NCC(c4ccccc4)c4ccc(Cl)cc4)ncnc32)[C@H](O)[C@@H]1O (stereo partly shown) [Example 15, N^6-(2-(4-Chlorophenyl)-2-phenylethyl)adenosine] | 10 mg/kg | 10 mg/kg | – | >100 mg/kg | 0.03 µM | > 3 µM | 12.7 mg/kg
3 | CC(=O)OC[C@H]1O[C@@H](n2cnc3c(NCC(c4ccccc4)c4ccccc4)ncnc32)[C@H](OC(C)=O)[C@@H]1OC(C)=O [Example 25, 2',3',5'-Tri-O-acetyl-N^6-(2,2-diphenylethyl)adenosine] | 3 mg/kg | 10 mg/kg | – | >100 mg/kg | 1 µM | 2.2 µM | 11.3 mg/kg
